Where “and” joins values, the source holds several entries; their conditions need not be identical. Equal entries are not always repeated.
How the values were obtained:
Assay type in all cases: cell-based, human
[1] = test system: peripheral blood CD34+ cells; assay: Two-step MK differentiation culture: level of proliferation (viable cell count)
Protocol: (§1) CD34^+ cells were seeded in 48-well plates at a density of 4×10^4 per mL in StemSpan SFEM medium supplemented with 20 ng/mL human LDL and CC220 (1×), a cocktail of cytokines containing SCF, TPO, IL-6 and IL-9 (all from Stemcell Technologies), with or without addition of 1 μM SR1 (Cellagen Technology, San Diego, Calif.) (FIG. 1A). On day 7, the cells were harvested, washed and seeded at 5×10^4/mL in StemSpan SFEM medium containing 30 ng/mL TPO with or without 1 μM SR1 for an additional 7 days. The cultures were incubated at 37° C. under normoxic conditions and 5% CO2. On days 7 and 10 of culture, the cells were counted, their viability was measured by propidium iodide exclusion in an automatic cell counter (ADAM, Digital-Bio, Korea) and the expression of CD34, CD41 and CD42b was analyzed in a Gallios flow cytometer using Kaluza software (Beckman Coulter, Villepinte, France). In some experiments, SR1 was replaced by the AhR agonist FICZ (Enzo life sciences, Villeurbane, France) added at 0.2 μM.

[2] = test system: CD34+CD41dim cells; assay: Number of platelet-like elements produced per seeded sorted CD34+CD41dim cell
Protocol: The cells recovered on day 10 were incubated with a mixture of Alexa-488-conjugated anti-CD41 (ALMA.17) and PE-Cy7-conjugated anti-CD34 mAbs (BD Biosciences) for 30 min at 4° C. They were then washed in PBS-EDTA and incubated for 30 min in PBS containing 7-AAD (1/50) to select viable cells. The morphologic and sorting gates were determined by FMO (fluorescence minus one) analysis and megakaryocytic precursors were sorted at 500 cells/s according to their CD34/CD41 expression using a FACS Aria II flow cytometer (Becton Dickinson, Mountain View, Calif.) equipped with a 50 μm nozzle and two argon lasers operating at 500 mW and tuned to 488 and 360 nm, respectively (Coherent Radiation, Palo Alto, Calif.). The sorted CD34^+CD41^dim and CD34 CD41^+ cells were then counted and seeded at 4×10^4/mL in 48-well plates in StemSpan medium containing TPO with or without SR1 for 7 days (FIG. 4A). CD34^+ cells cultured for 7 days in the presence of CC220 (FIGS. 1A and 5A) or CD34/CD41 sorted cells (FIGS. 4A and 6A) were seeded in a medium containing TPO. […] CD41/CD42c double positive events, having the same scattering properties as washed blood platelets, were counted as platelet-like particles and the number of particles per seeded cell, at day 7 or 10 following experiments, was determined.

[3] = test system: CYP1B1; assay: CYP1B1 mRNA expression by qPCR (downstream target of AhR)
Protocol: CD41/61 cells were obtained on day 7 or 10 of culture using the antibody ALMA.17 and magnetic beads (EasySep® “Do-It-Yourself” Selection Kit, StemCell Technologies). Total RNA were extracted using an RNeasy® Mini kit (QIAGEN) following manufacturer's instructions. Quantity and quality of total RNA for all samples were evaluated by measuring OD at 260 nm and concentration was adjusted at 50 ng/ml. The RNA samples were stored at −80° C. until use. qRT-PCR was applied under standard conditions using the SYBR Green Master Mix kit on the ABI Prism 7900 Sequence Detection System (PerkinElmer-Cetus, Courtaboeuf, France). The primers for genes were chosen with the assistance of the Oligo 6.0 program (National Biosciences, Plymouth, Minn.) and have been previously described (Bieche I. et al., Pharmacogenetics and genomics. 2007; 17:731-742).

[4] = test system: peripheral blood CD34+ cells; assay: Quantification of proplatelet-bearing MKs in two-step culture of CD34+ cells
Protocol: as §1
(§2) The percentage of MKs extending proplatelets was determined in the culture wells by phase-contrast microscopy. In each culture, at least 100 MKs were analyzed and images were acquired using a Zeiss Axio Vert.A1 microscope with a 20× objective (Marly-le-Roi, France).

[5] = test system: peripheral blood CD34+ cells; assay: CD34/CD41 expression by flow cytometry in MK differentiation culture
Protocol: as §1
(§3) In a second protocol, CD34^+ cells were cultured in the presence of mesenchymal stromal cells (MSCs) isolated from human bone marrow (Guilloton F et al., Blood. 2012; 119:2556-2567). MSCs were maintained in α-MEM medium supplemented with 10% fetal bovine serum (Invitrogen, Cergy Pontoise, France) and 2 ng/mL recombinant human (rh) FGF2 (Peprotech, Rocky Hill, N.J.). CD34^+ cells were added to a confluent layer of MSCs at a density of 4×10^4/mL in 48-well plates in StemSpan SFEM medium supplemented with 20 ng/mL human LDL and CC220. On day 7, the cells in suspension were harvested, washed and co-cultured at 5×10^4/mL on a new layer of confluent MSCs in StemSpan SFEM medium containing 30 ng/mL TPO for an additional 7 days (FIG. 5A).
Surface Markers. Cells were analyzed by flow cytometry (Gallios, Beckman Coulter, France) after labeling with anti-CD34-PE-Cy7 (Beckman Coulter, Fullerton, Calif.), anti-CD41-Alexa-488 (ALMA.17), anti-CD42c-PE (RAM.1) and anti-CD42d-Alexa-647 (V.1) mAbs for 30 min at 4° C. The cells were then washed and resuspended in PBS containing 7-AAD (1/50). The acquired data were analyzed with Kaluza software.

[6] = test system: CD34+CD41dim cells; assay: Quantification of proplatelet-bearing MKs from sorted CD34+CD41dim cells
Protocol: The cells recovered on day 10 were incubated with a mixture of Alexa-488-conjugated anti-CD41 (ALMA.17) and PE-Cy7-conjugated anti-CD34 mAbs (BD Biosciences) for 30 min at 4° C. They were then washed in PBS-EDTA and incubated for 30 min in PBS containing 7-AAD (1/50) to select viable cells. The morphologic and sorting gates were determined by FMO (fluorescence minus one) analysis and megakaryocytic precursors were sorted at 500 cells/s according to their CD34/CD41 expression using a FACS Aria II flow cytometer (Becton Dickinson, Mountain View, Calif.) equipped with a 50 μm nozzle and two argon lasers operating at 500 mW and tuned to 488 and 360 nm, respectively (Coherent Radiation, Palo Alto, Calif.). The sorted CD34^+CD41^dim and CD34 CD41^+ cells were then counted and seeded at 4×10^4/mL in 48-well plates in StemSpan medium containing TPO with or without SR1 for 7 days (FIG. 4A).
as §2

[7] = test system: peripheral blood CD34+ cells; assay: Determination of the number of platelets produced per seeded cell, two-step culture of CD34+ cells
Protocol: as §1
as §3, with “On day 7, the cells in suspension were harvested, washed and co-cultured at 5×10^4/mL on a new layer of confluent MSCs in StemSpan SFEM medium containing 30 ng/mL TPO for an additional 7 days (FIG. 5A).” left out
CD34^+ cells cultured for 7 days in the presence of CC220 (FIGS. 1A and 5A) or CD34/CD41 sorted cells (FIGS. 4A and 6A) were seeded in a medium containing TPO. […] CD41/CD42c double positive events, having the same scattering properties as washed blood platelets, were counted as platelet-like particles and the number of particles per seeded cell, at day 7 or 10 following experiments, was determined.

[8] = SR1-derived CD34+CD41dim cells sorted day 10, 7 days in TPO + SR1 (5 μM)

Question: `CC(C)n1cnc2c(NCCc3ccc(O)cc3)nc(-c3csc4ccccc34)nc21` [SR1, 4-(2-(2-(benzo[b]thiophen-3-yl)-9-isopropyl-9H-purin-6-ylamino)ethyl)phenol] was tested. Which “fold expansion of the total nucleated cells” value ([1]; day 7, over input of CD34+ cells on day 0, with SR1, mean±SEM, n=8) did it give?
Answer: 4.2±1.2 fold

Question: And the “increase in number of cells from day 7 to day 10” value ([1]; day 7 to day 10, SR1-treated cultures)?
Answer: 2.5 times

Question: What about the “number of platelet-like elements per seeded cell” value [2, 8] of the same molecule?
Answer: 52.1±8.8 platelets/seeded cell and 52.06±8.79 platelets/seeded cell

Question: And the “enhanced production of platelet-like elements with SR1 as compared to without SR1” value ([2]; sorted CD34+CD41dim cells, 7 days in TPO)?
Answer: 6.8 fold

Question: What about the CYP1B1 expression ([3]; day 7 culture, SR1 treated cells, control 579.8±40.8, n=3) of the same molecule?
Answer: 2.5±0.8 arbitrary units

Question: What about the “percentage of MKs extending proplatelets” value ([4]; day 14, 1 μM SR1, CC220 day 0-7 then TPO day 7-14) of the same molecule?
Answer: 34.6±2.1%

Question: And the “decrease in CD34 positivity” value ([5]; day 7, expansion step with CC220, SR1-treated)?
Answer: 8.3%

Question: And the “CD34+CD41+ cells, % of total population” value ([5]; day 7, presence of SR1)?
Answer: 68.9±1.8% and 69%

Question: And the “CD34+CD41- cells, % of total population” value ([5]; day 7, presence of SR1)?
Answer: 22.4±1.5%

Question: What about the “CD34-CD41+ cells, % of total population” value ([5]; day 7, presence of SR1) of the same molecule?
Answer: 3.6±0.3%

Question: And the “CD34+CD41+ cells, % of the cells” value ([5]; day 10, SR1-treated cultures)?
Answer: 55.1±4.9% and 55%

Question: And the “CD34+CD41dim cells (region R2), % of total cells” value ([5]; day 10, SR1 treatment, mean±SEM in 8 experiments)?
Answer: 36.8±1.9%

Question: What about the “proportion of CD34+ cells” value ([5]; day 10, after passage in TPO alone, SR1 treatment) of the same molecule?
Answer: 71.6%

Question: And the “CD34-CD41+ cells, % of the cells” value ([5]; day 10, presence of SR1)?
Answer: 26.7±4.5%

Question: And the “percentage of MKs extending proplatelets” value ([6]; MSC-derived CD34+CD41dim cells sorted day 10, 7 days in TPO + 5 μM SR1, n=4)?
Answer: 49.5±10.5%

Question: And the “percentage of MKs extending proplatelets” value [6, 8]?
Answer: 91.0±2.4%

Question: What about the “proportion of the MKs produced that are proplatelet-bearing MKs” value ([6]; from seeded CD34+CD41dim cells, summary statement) of the same molecule?
Answer: About 90%

Question: What about the “number of platelet-like elements per cell seeded on day 7” value ([7]; day 14, 1 μM SR1) of the same molecule?
Answer: 20.72±5.19 platelets/seeded cell

Question: And the “increase in number of platelet particles after addition of SR1 versus control” value ([7]; day 14, per cell seeded on day 7)?
Answer: about 3 fold

Question: With `O=Cc1c2[nH]c3ccccc3c2cc2[nH]c3ccccc3c12` [FICZ] as the molecule, how does the “effect on the MSC-induced decrease in CYP1B1 transcripts” value ([3]; MSC co-culture with addition of FICZ, day 10) read?
Answer: reversed

Question: What about the “proplatelet extension of MKs” value ([4]; SR1 replaced by FICZ (0.2 μM)) of the same molecule?
Answer: dramatic decrease

Question: What about the “proportion of CD34+CD41dim cells” value ([5]; MSC co-culture with addition of FICZ, data not shown) of the same molecule?
Answer: reduced

Question: And the “number of platelet-like elements per cell seeded on day 7” value ([7]; day 14, SR1 replaced by 0.2 μM FICZ)?
Answer: 0.20±0.04 platelets/seeded cell

Reference: patent US11236303B2, “CD34+CD41DIM megakaryocytes progenitors and uses thereof for producing proplatelet-bearing MKs and/or platelets” (INSTITUT NATIONAL DE LA SANTE ET DE LA RECHERCHE MEDICALE …, priority 2015, dated 2022)
